Tested on: GNS166 cells
Assay: Microarray whole-transcriptome gene expression analysis
Format: cell-based, human
Settings: DMSO vs 5 µM SAHA, upregulated genes
Method: Whole-transcriptome analysis was performed from 300 ng of RNA using HuGene-2_0-st-v1 expression array (Affymetrix), which covers 48,226 transcripts. Raw data were first checked for quality purposes through the Affymetrix® Expression Console™ Software v1.4.1 and TAC software v4.0. Then, data were normalized using the Robust Multi-array Average (RMA) and analyzed by Limma tool. Probesets with FDR-corrected p-values smaller than 0.05 were selected. Functional enrichment on Gene Ontology (GO) biological processes was performed on a smaller subset of the differentially expressed genes (corrected p-value < 0.001) by means of Broad Institute GSEA. […] The data that support this study have been deposited in NCBI´s Gene Expression Omnibus and are accessible through GEO series accession number GSE143887.

SMILES: O=C(CCCCCCC(=O)Nc1ccccc1)NO [SAHA, Suberoylanilide hydroxamic acid]
- logFC NMUR2 (transcript TC0500012531.hg.1): 2.3
- logFC PIM1 (transcript TC0600007862.hg.1): 1.267
- logFC BCKDHB (transcript TC0600008632.hg.1): 0.8913
- logFC SLC16A10 (transcript TC0600009143.hg.1): 1.06
- logFC TBPL1 (transcript TC0600009508.hg.1): 0.8103
- logFC STK38 (transcript TC0600011661.hg.1): 0.8577
- logFC SOGA3 (transcript TC0600013119.hg.1): 1.659
- logFC STX7 (transcript TC0600013193.hg.1): 1.104
- logFC CYB5R4 (transcript TC0600014148.hg.1): 0.9356
- logFC ARL4A (transcript TC0700006737.hg.1): 1.551
- logFC AHR (transcript TC0700006795.hg.1): 1.0742
- logFC C7orf57 (transcript TC0700007475.hg.1): 1.163
- logFC PRKAR2B (transcript TC0700008745.hg.1): 1.383
- logFC ANKRD7 (transcript TC0700008898.hg.1): 1.335
- logFC SND1 (transcript TC0700009020.hg.1): 0.9855
- logFC FAM71F1 (transcript TC0700009060.hg.1): 1.462
- logFC DGKB (transcript TC0700010327.hg.1): 0.979
- logFC TMEM60 (transcript TC0700011601.hg.1): 0.8857
- logFC FAM3C (transcript TC0700012427.hg.1): 0.9259
- logFC IQUB (transcript TC0700012456.hg.1): 1.539
- logFC RASA4 (transcript TC0700013603.hg.1): 1.334
- logFC KIAA1456 (transcript TC0800006802.hg.1): 1.838
- logFC PDGFRL (transcript TC0800006873.hg.1): 1.146
- logFC PLAT (transcript TC0800010275.hg.1): 1.063
- logFC PAG1 (transcript TC0800010926.hg.1): 1.472
- logFC EXT1 (transcript TC0800011579.hg.1): 1.229
- logFC SLC26A7 (transcript TC0800012325.hg.1): 0.8985
- logFC PSAT1 (transcript TC0900007667.hg.1): 0.8807
- logFC MLLT3 (transcript TC0900009679.hg.1): 1.79
- logFC APBA1 (transcript TC0900010350.hg.1): 1.1769
- logFC NR6A1 (transcript TC0900011501.hg.1): 1.227
- logFC ALDH1A1 (transcript TC0900012245.hg.1): 1.351
- logFC CDC14B (transcript TC0900012256.hg.1): 1.18
- logFC BAMBI (transcript TC1000007132.hg.1): 1.194
- logFC DNAJC1 (transcript TC1000010006.hg.1): 1.349
- logFC ZNF215 (transcript TC1100006749.hg.1): 1.332
- logFC GRIA4 (transcript TC1100008948.hg.1): 1.769
- logFC C11orf88 (transcript TC1100009023.hg.1): 1.468
- logFC SIK2 (transcript TC1100009026.hg.1): 0.9192
- logFC NRGN (transcript TC1100009398.hg.1): 0.9705
- logFC FZD4 (transcript TC1100011867.hg.1): 1.1951
- logFC CCDC82 (transcript TC1100012052.hg.1): 0.8598
- logFC IL18 (transcript TC1100012318.hg.1): 1.544
- logFC CDON (transcript TC1100012722.hg.1): 2.237
- logFC FAM89B (transcript TC1100013043.hg.1): 0.8784
- logFC IGF2 (transcript TC1100013131.hg.1): 1.158
- logFC C12orf60 (transcript TC1200006948.hg.1): 1.183
- logFC ARNTL2 (transcript TC1200007147.hg.1): 1.2211
- logFC GDF11 (transcript TC1200007809.hg.1): 1.519
- logFC TMTC2 (transcript TC1200008322.hg.1): 1.0601
- logFC TMTC3 (transcript TC1200008373.hg.1): 1.159
- logFC TXNRD1 (transcript TC1200008675.hg.1): 0.8282
- logFC P2RX7 (transcript TC1200009157.hg.1): 1.148
- logFC RHEBL1 (transcript TC1200010612.hg.1): 1.826
- logFC ATP2B1 (transcript TC1200011474.hg.1): 1.035
- logFC LRRC63 (transcript TC1300007085.hg.1): 1.37
- logFC SLC46A3 (transcript TC1300008468.hg.1): 1.1281
- logFC UBL3 (transcript TC1300008497.hg.1): 0.9113
- logFC LCP1 (transcript TC1300008840.hg.1): 1.339
- logFC KLF12 (transcript TC1300009249.hg.1): 1.022
- logFC SLITRK1 (transcript TC1300009376.hg.1): 1.004
- logFC FOXG1 (transcript TC1400006791.hg.1): 0.91
- logFC SOCS4 (transcript TC1400007221.hg.1): 0.9561
- logFC ARID4A (transcript TC1400007307.hg.1): 0.9227
- logFC SLC7A8 (transcript TC1400008705.hg.1): 1.877
- logFC GCH1 (transcript TC1400009239.hg.1): 1.069
- logFC KLHL28 (transcript TC1400010737.hg.1): 1.205
- logFC TMOD2 (transcript TC1500007238.hg.1): 1.505
- logFC LRRC49 (transcript TC1500007735.hg.1): 1.1742
- logFC DENND4A (transcript TC1500009804.hg.1): 1.04
- logFC UACA (transcript TC1500009921.hg.1): 1.398
- logFC RGMA (transcript TC1500010501.hg.1): 0.8186
- logFC YPEL3 (transcript TC1600009952.hg.1): 1.349
- logFC ACSM3 (transcript TC1600011362.hg.1): 1.318
- logFC NLK (transcript TC1700007344.hg.1): 1.006
- logFC NGFR (transcript TC1700008209.hg.1): 1.322
- logFC DYNLL2 (transcript TC1700008418.hg.1): 0.9396
- logFC MYO1D (transcript TC1700010358.hg.1): 1.521
- logFC MMD (transcript TC1700011181.hg.1): 0.9396
- logFC CBX4 (transcript TC1700011953.hg.1): 1.178
- logFC UNC13A (transcript TC1900009984.hg.1): 2.076
- logFC KIAA1683 (transcript TC1900010008.hg.1): 1.003
- logFC DIRAS1 (transcript TC1900011842.hg.1): 0.9114
- logFC TGM2 (transcript TC2000009058.hg.1): 1.058
- logFC KCNQ2 (transcript TC2000009809.hg.1): 1.266
- logFC SRXN1 (transcript TC2000009960.hg.1): 0.9857
- logFC SH3BGR (transcript TC2100007166.hg.1): 0.8256
- logFC ADAMTS1 (transcript TC2100007821.hg.1): 1.343
- logFC TIMP3 (transcript TC2200007150.hg.1): 0.905

Reference: PMC7265429, “Characterization of a new small-molecule inhibitor of HDAC6 in glioblastoma” (Cell Death & Disease, 2020)
